Source: patent US20250152702A1, “EPICHAPEROME INHIBITION TO IMPROVE T CELL RESPONSES” (priority 2023, published 2025)
“Also recorded” adds a separate entry of the source. Like-named read-outs stand apart in the source and are kept apart here.

What was measured:
[1] = test system: NALM6 (CD19+ B-ALL cell line)
Experimental: FIGS. 7A-7C. […] (A) Schematic representation. CART19/4-1BB or control T cells were cultured with NALM6 (CD19^+ B-ALL cell line) for 18 h at a E:T ratio of 1:1. (B) Cytotoxicity was evaluated by flow cytometry and represented as relative to the number of dead cells in the control cells (no effector cells). Experiment performed in triplicate, Error bar represents the SEM, significance assessed using ANOVA test. (C) In vivo testing.
To better understand its effect on human T cells and its potential adjuvant effect during cellular therapy, in vitro and in vivo chimeric antigen receptor (CAR)-T cell (CAR-T cells) phenotype and function in the presence of PU-H71 was tested. […] Finally, the therapeutic effect of the combination of PU-H71 and CART19 was evaluated in a B-ALL NSG mouse model using NALM6-BLIV cells, with bioluminescence imaging and flow cytometry (CART19 and leukemic cells) monitoring.
To investigate the impact of epichaperome disruption on CAR T cells, CART19/4-1BB was generated and tested. […] Subsequently, the impact of epichaperome disruption on the function of CART19/4-1BB cells was assessed during co-culture with leukemia cells expressing CD19. The cytotoxic effect of CART19/4-1BB cells against Nalm-6 (CD19^+ B-ALL cell line) was measured with or without 1 μM PU-H71 (FIG. 7).

[2] = test system: IFNγ-secreting T cells; assay: OVA immunization of mice, OVA-specific T cell response by IFNγ ELISPOT; type: in vivo, C57BL/6 mice
Experimental: (§1) FIGS. 3A-3H. Disruption of the epichaperome using PU-H71 improves OVA-specific T cells response and anti-tumor immune response in a mouse model. (A) C57BL/6 (B6) mice were injected intraperitoneally (i.p.) with PU-H71 (75 mg/kg) n=8 or PBS n=8 on days 0, 3 and 7. On day 1, all mice were immunized subcutaneously (s.c.) with 100 μg OVA emulsified in incomplete Freund's adjuvant (IFA), experimental controls shown in schema. Peripheral blood (PB) was collected on days 0, 5 and 9, and the spleen was collected at the end of the experiment, on day 9. (B, C) T cell immunization against OVA was assessed by measuring IFN[…] release from T cells after exposure with OVA using Elispot assay. Two-tailed T test (D) Anti-OVA IgG in serum was assessed by ELISA. (E) B6 mice were immunized with OVA treated with PU-H71 (75 mg/kg) n=8 or PBS n=8 on days 11, 15 and 18. PB and spleen were collected at the end of the experiment, on day 20. (F) T cell immunization against OVA was assessed by measuring IFN[…] by Elispot assay. […] On day 7 after immunization, mice challenged with OVA-expressing EG.7 tumor cells (H) tumor volume was assessed every 2-3 days using calipers. p values shown for day 13 assessment by one-way ANOVA.
(§2) The effects of an epichaperome disrupter, PU-H71, were tested on C57BL/6 mice immune responses to ovalbumin (OVA) immunization. OVA-specific T- and B-cell responses were evaluated by ELISPOT and ELISA, respectively. […]
In vivo: In vivo assessment in immunization model: the well-characterized in vivo immunization model that utilizes chicken ovalbumin (OVA) will be used. […] Antibody production against OVA will be assessed in the peripheral blood (PB) at day 9 to confirm that the immunization took place (40). PU-H71 will be evaluated at different dosing schedules: before OVA administration to assess an effect on priming, shortly after OVA administration to assess an effect on T cell proliferation and polarization, and after the response has been completed (11 days) to evaluate an effect on the already ongoing response (for this cohort, mice will be sacrificed 9 days after PU-H71 treatment). […]

[3] = test system: anti-OVA IgG; assay: OVA immunization of mice, anti-OVA antibody by ELISA; type: in vivo, C57BL/6 mice; details: PU-H71 at the time of priming
Experimental: as §1, with “PB and spleen were collected at the end of the experiment, on day 20.” left out
as §2

[4] = test system: activated T cells; assay: Activated human T cells treated with PU-H71: survival and surface phenotype by flow cytometry; type: cell-based
Experimental: FIGS. 2A-2D. Epichaperomes are formed in activated T cells and their disruption impacts T cell activation phenotype but not survival. (A) Resting T cells from healthy donors were assayed for the abundance of epichaperomes by flow cytometry. (B) Purified T cells activated with anti-CD3/CD28 beads were tested for changes in epichaperome abundance 20 h after activation and compared with resting T cells and MV4-11 as a positive control. n=3, One-way ANOVA ** p<0.002, *** p<0.0002 (C, D) T cells were treated with 1 μM PU-H71 upon activation to assess the effect of epichaperome disruption on survival (C) and cell surface phenotype (CD4, CD8, CD25, CD69, HLA-DR) n=3 *p<0.03 two-tailed T-test (D).
Thus, epichaperome formation skews the balance of T cell populations and functions towards an immunosuppressive outcome, a balance that can be restored to a cytotoxic function by epichaperome disruptors. This leads to a role of epichaperome disruptors, such as PU-H71, in CAR T cell cytotoxicity and the ability of epichaperome disruptors, such as, PU-H71, to improve the outcomes of AML patients in the post-transplant setting by improving GvL without affecting GvHD.

[5] = test system: acute myeloid leukemia (AML); details: cited from earlier work; for exacerbation of GvHD in the patient: patient with donor T cell chimerism after failed allo-HSCT; for duration of complete remission: single agent, AML patient with high epichaperome abundance, post-transplant relapse
[6] = test system: NALM6-BLIV cells; assay: B-ALL NSG mouse model with NALM6-BLIV cells, PU-H71 combined with CART19; type: in vivo
Experimental: Nalm-6 xenograft: Xenografts will be initiated using CD19^+ B-cell acute lymphoblastic leukemia (B-ALL), Nalm-6 cells expressing luciferase and GFP (BLIV/GFP) transplanted into NSG mice (59). Anti-CD19 CAR T cells (CART19/4-1BB) or non-transduced T cells (NTC) will be administered once engraftment is confirmed by bioluminescence and flow cytometry. Four treatment cohorts will be studied: (1) saline, (2) PU-H71 (75 mg/kg i.p. bi-weekly), (3) CART19/4-1BB, (4) PU-H71 (75 mg/kgi.p. bi-weekly)+CART19/4-1BB. Each cohort will consist of 8 mice, ensuring >80% power at two-sided alpha of 0.05 to detect a standardized effect size of 1.6 in tumor burden and immune cell modulation, and will include both male and female mice. The PU-H71 dose and schedule will be determined based on data (9, 17). Tumor progression will be monitored weekly using bioluminescence imaging, with CAR T cell percentage and phenotype assessed in PB from day 2 onwards and every subsequent week, as published previously (17, 59). Bone marrow (BM) aspirates on day 14 will assess tumor burden and CAR T persistence. At the endpoint, the spleen, BM, and PB will be harvested to determine leukemia burden and CAR T cell phenotype.

[7] = test system: Hsp90; details: cited from earlier work
[8] = test system: E.G7 (OVA+) lymphoma cells; assay: Anti-tumor response in OVA-immunized mice challenged with E.G7 lymphoma; type: in vivo, C57BL/6 mice
Experimental: as §1, with “ANOVA. […]” for “ANOVA.”
In vivo assessment in an anti-tumor response model: E.G7 cells are OVA-expressing cells derived from the C57BL/6 (H-2b) mouse lymphoma cell line EL4, allowing for the establishment of a syngeneic lymphoma mouse model to evaluate anti-tumor protection after OVA immunization (39). […] At day 7 after immunization, lymphoma cells will be injected subcutaneously into the mice, and tumor growth will be evaluated twice a week using micro calipers. Tumor volume will be determined as mm^3=length×width^2 (41). Survival will be also determined as an endpoint (mice will be euthanized when tumor size reaches 2000 mm^3 or the animals lose more than 10% of weight). Differences in tumor growth and survival will be determined in mice immunized with OVA and PU-H71 compared to the controls OVA+IFA or no immunization. […]

## CC(C)NCCCn1c(Sc2cc3c(cc2I)OCO3)nc2c(N)ncnc21 [PU-H71, 8-[(6-iodo-1,3-benzodioxol-5-yl)sulfanyl]-9-[3-(propan-2-ylamino)propyl]purin-6-amine]
[1]
  in vitro cytotoxicity of CAR-T cells toward NALM6 B-ALL cells: 74.66%
[2]; PU-H71 75 mg/kg i.p. at the time of priming, OVA immunization, ELISPOT, n=8, controls 42, p=0.0002
  number of IFNγ-secreting T cells (median): 126 per million of cells
[2]; PU-H71 administered once the OVA-specific T cell response was ongoing
  effect on OVA-specific T cell response: no effect
[2]; PU-H71 at the time of priming
  impact on T cell phenotype: without overt impact; also recorded: without an impact
[3]
  impact on anti-OVA antibody levels: without overt impact; also recorded: without an impact
[4]; 1 μM PU-H71 upon activation
  CD4 to CD8 ratio: increase of CD8^+ cells; also recorded: skewed towards more CD8^+ cells
  expression of activation marker CD69: not significantly changed
[4]; 1 μM PU-H71 upon activation with anti-CD3/CD28 beads
  viability of activated T cells: no detrimental effect
[5]; patient treated for >5 yrs
  myelosuppression and drug-related toxicities: without significant myelosuppression or drug-related extramedullary toxicities
[5]
  exacerbation of GvHD in the patient: did not exacerbate GvHD; also recorded: did not exacerbate these symptoms
  duration of complete remission: over five years
[5]; listed as Zelavespib
  exacerbation of GvHD in the patient: without exacerbation of GvHD
  duration of complete remission: > 5 years
[5]; listed as zelavespib
  exacerbation of GvHD in the patient: no clinically relevant exacerbation
  duration of complete remission: over 5 years
[5]; single AML patient
  time to complete remission (CR): ≤ 45 days
[6]
  CART19 numbers in the bone marrow: increases CART19 numbers in the bone marrow
  in vivo antitumor efficacy of CART19 against NALM6: improves their in vivo antitumor efficacy
[7]
  binding preference for Hsp90 form: preferential binding to Hsp90 when it is in the highly integrated complexed form that is the epichaperome
[8]; OVA-primed mice plus PU-H71, E.G7 challenge
  in vivo anti-tumor immune response / tumor progression: significantly decreases tumor progression; also recorded: improved in vivo anti-tumor immune responses
[8]; PU-H71 without immunization, n=6
  ability to control tumor progression: 16 days
[8]; mice immunized against OVA without IFA and treated with PU-H71, OVA alone 16 days, saline 14 days, n=8
  ability to control tumor progression: 18 days
